Values of other authors, collected in patent publication US20240207270A1, “COMPOUNDS AND COMPOSITIONS FOR MODULATING LIPID METABOLISM” (WaveBreak Inc., priority 2021, published 2024).

Molecular target: ROCK
Conditions: ATP-competitive inhibitor of ROCK

Question: Which Ki does the source give for Cc1cncc2cccc(S(=O)(=O)N3CCCNC[C@@H]3C)c12 [(S)-H-1152] here?
Answer: 1.6 nM
